Experimental data taken from ChEMBL document CHEMBL1141464, “Rational design of the first small-molecule antagonists of NHERF1/EBP50 PDZ domains” (Bioorg Med Chem Lett, 2008).
Activity calls are given as the source filed them. The rule behind the calls is not given here.

Experiments:
[1] = biological target: Beta-2 adrenergic receptor (Homo sapiens) (UniProt P07550); assay: Binding affinity to GST tagged human beta 2 adrenergic receptor PDZ1 domain upto 300 uM
[2] = biological target: Cystic fibrosis transmembrane conductance regulator (Homo sapiens) (UniProt P13569); assay: Binding affinity to GST tagged human CFTR PDZ2 domain upto 300 uM
Cystic fibrosis transmembrane conductance regulator (Homo sapiens), sequence (P13569 whole entry, looked up, the tested form may be a part): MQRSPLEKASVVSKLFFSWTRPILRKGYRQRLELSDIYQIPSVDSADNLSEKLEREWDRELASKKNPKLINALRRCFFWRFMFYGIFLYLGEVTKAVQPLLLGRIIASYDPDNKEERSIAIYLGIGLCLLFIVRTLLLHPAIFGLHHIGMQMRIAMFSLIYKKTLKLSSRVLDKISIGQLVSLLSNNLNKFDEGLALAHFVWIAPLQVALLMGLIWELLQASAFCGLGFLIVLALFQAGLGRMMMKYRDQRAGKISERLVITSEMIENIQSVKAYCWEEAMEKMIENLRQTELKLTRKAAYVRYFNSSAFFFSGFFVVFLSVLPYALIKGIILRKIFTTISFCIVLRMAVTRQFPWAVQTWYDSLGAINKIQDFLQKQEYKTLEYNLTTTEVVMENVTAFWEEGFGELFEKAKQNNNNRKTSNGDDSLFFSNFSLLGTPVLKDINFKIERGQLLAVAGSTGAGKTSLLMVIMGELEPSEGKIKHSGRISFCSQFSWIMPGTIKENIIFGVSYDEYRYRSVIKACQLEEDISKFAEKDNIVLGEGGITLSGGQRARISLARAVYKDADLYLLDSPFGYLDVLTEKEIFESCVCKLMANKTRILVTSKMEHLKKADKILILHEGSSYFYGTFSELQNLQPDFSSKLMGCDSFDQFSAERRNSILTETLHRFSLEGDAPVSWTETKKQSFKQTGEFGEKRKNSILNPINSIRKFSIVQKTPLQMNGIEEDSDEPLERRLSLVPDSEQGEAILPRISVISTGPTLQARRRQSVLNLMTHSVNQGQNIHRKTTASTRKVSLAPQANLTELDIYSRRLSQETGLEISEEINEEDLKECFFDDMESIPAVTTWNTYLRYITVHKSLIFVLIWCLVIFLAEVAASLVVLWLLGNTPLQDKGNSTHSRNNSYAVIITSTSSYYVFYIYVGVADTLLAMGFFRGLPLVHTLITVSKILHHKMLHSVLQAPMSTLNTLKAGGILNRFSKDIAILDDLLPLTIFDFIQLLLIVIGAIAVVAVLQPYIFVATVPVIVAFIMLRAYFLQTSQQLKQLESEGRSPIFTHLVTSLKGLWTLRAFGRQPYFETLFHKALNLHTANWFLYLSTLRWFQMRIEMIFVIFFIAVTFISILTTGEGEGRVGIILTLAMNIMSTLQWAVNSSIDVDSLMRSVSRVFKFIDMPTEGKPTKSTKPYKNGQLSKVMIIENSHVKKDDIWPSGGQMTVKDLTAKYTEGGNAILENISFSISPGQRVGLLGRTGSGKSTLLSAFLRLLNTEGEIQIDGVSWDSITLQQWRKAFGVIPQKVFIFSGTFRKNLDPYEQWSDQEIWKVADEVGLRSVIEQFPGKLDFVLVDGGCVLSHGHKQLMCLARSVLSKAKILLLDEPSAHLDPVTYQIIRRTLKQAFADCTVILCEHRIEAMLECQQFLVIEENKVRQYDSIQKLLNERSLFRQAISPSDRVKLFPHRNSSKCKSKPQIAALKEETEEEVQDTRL

Beta-2 adrenergic receptor (Homo sapiens), sequence (P07550 whole entry, looked up, the tested form may be a part): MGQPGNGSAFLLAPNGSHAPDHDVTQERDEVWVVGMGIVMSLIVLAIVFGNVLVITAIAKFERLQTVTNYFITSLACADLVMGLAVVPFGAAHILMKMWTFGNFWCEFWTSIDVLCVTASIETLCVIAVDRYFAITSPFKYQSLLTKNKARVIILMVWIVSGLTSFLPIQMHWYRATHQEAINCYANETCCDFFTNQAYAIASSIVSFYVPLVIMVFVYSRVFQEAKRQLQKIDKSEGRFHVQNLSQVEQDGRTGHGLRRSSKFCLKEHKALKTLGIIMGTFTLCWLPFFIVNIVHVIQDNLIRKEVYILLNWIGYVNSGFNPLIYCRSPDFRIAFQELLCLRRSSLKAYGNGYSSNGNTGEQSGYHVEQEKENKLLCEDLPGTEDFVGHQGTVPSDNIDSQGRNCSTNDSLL

Activity [1]: inactive
Activity [2]: inactive
Compound: CCCNC(=O)c1[nH]c2cc(C)c(C(=O)O)cc2c1CCc1ccccc1
